Test results from patent US12115174B2, “Dendrimer formulations” (AstraZeneca AB, priority 2018, dated 2024).

Key:
Assay type in all cases: in vivo
[1] = tested on: Cleaved poly ADP ribose polymerase (PARP); experiment: Cleaved PARP response (cell death) after a single dose; details: Compound A in HP-β-CD formulation
Protocol: Cleaved poly ADP ribose polymerase (PARP) response was used as a measure of cell death.
Additionally, cell death (apoptosis) was measured using cleaved PARP (FIG. 4).

[2] = tested on: human acute lymphoblastic leukemia cells (RS4:11); experiment: RS4:11 Acute Lymphoblastic Leukemia xenograft efficacy in SCID mice
Protocol: The efficacy evaluation of the vehicle (phosphate buffer saline), Compound A (formulated in 30% HP-β-CD, pH 4), Compound 1 in PBS (equivalent to 10 mg/kg Compound A) and Compound 2 in PBS (equivalent to 10 mg/kg and 30 mg/kg Compound A) is shown.
The efficacy evaluation of the vehicle (phosphate buffer saline, PBS), a formulation of Compound A in 30% HP-β-CD, Compound 1 in PBS (equivalent to 20 mg/kg Compound A) and Compound 2 in PBS (equivalent to 20 mg/kg Compound A) and is shown.
Preparation of Compounds 1 and 2 PBS formulations for dosing RS4:11 efficacy study: The appropriate amounts of Compound 1 and 2 were weighed into a volumetric flask. 10 mL Dulbecc's Phosphate Buffered Saline (PBS) was added and formulations were then stirred until the compound dissolved entirely.
The appropriate amount of Compound A was weighed into a 10 mL volumetric flask. 8 mL of 30% w/v HP-β-CD vehicle was then added and the formulation stirred. 1M MSA was added dropwise until the pH was reduced to about 2. The formulation was then stirred until the compound dissolved entirely. The pH was measured and adjusted to pH 4, dropwise using 1M MSA or NaOH. The formulation was then stirred to make sure a clear solution (with possible haze) was obtained. The volume was then made up to 10 mL with 30% w/v HP-β-CD vehicle and stirred. The final pH was measured and recorded and the formulation filtered through a […] filter prior to administration. Other formulation strengths were prepared by diluting the Compound A in 30% w/v HP-β-CD with an appropriate amount of 30% w/v HP-β-CD vehicle.
Efficacy of Compounds 1 and 2 in RS4:11 Xenograft Model: 5×10^6 RS4; 11 cells in a total volume of 100 μL were inoculated subcutaneously at the mouse right flank. […]
(§1) On specific day, for each treated group, calculate Inhibition value by formula: Inhibition %=(CG-TG)*100/(CG-1), in which “CG” means the geometric mean of rtv of the control group and “TG” means the Geometric Mean of Relative Tumor Volume (rtv) of the treated group. “CG” should use the corresponding control group of the treated group when calculated. […]

SuDHL-4 = SuDHL-4 xenograft model in SCID mice, alone and with rituximab
Protocol: Formulations of Compound 1 for SuDHL-4 efficacy study: Compound 1 was formulated in a pH 5 citrate/phosphate buffer diluted 1:10 with 5% glucose and containing 1% w/v Kolliphor HS-15, at concentrations up to 105 mg/mL of Compound 1 (equivalent to up to 30 mg/mL of Compound A concentration).
Formulations of Compound 2 for dosing in SuDHL-4 efficacy study: Compound 2 was formulated in a pH 4 citrate/phosphate buffer diluted 1:10 with 5% Glucose and containing 1% w/v Kolliphor HS-15, at concentrations up to 121 mg/mL of Compound 2 (equivalent of up to 30 mg/mL of Compound A concentration).
Compounds 1 and 2 enhance inhibition of tumor growth by rituximab in SuDHL-4 Xenograft Model in SCID Mice: The SuDHL-4 xenograft model was used to test the ability of Compounds 1 and 2 to enhance the activity of rituximab in inhibiting tumor growth. […]
Tumor sizes were measured 2 times a week and calculated as: Tumor Volume=(A×B^2)/2 where A and B are the tumor length and width (in mm), respectively.
as §1

Molecule | time of cleaved PARP induction post treatment [1] | % Inhibition Day (47) ([2]; Compound A 5 mg/kg) [%] | % Regression Day(47) ([2]; Compound A 5 mg/kg) [%] | regression ([2]; Compound A HP-β-CD 10 mg/kg IV once) [%] | T − C (SuDHL-4; rituximab 10 mg/kg alone) [days] | % Inhibition (TIC) Day(41) (SuDHL-4; rituximab 10 mg/kg i.p. once a week for 5 weeks) [%]
CN(CCO)CC[C@H](CCSc1ccccc1)CNc1ccc(S(=O)(=O)NC(=O)c2ccc(N3CCC([C@@H](O)c4ccccc4-c4ccc(Cl)cc4)CC3)cc2)cc1S(=O)(=O)C(F)(F)F [Compound A, reference compound] | immediately post treatment 1 and 3 hr | >100 | 90 | 90 | – | –
rituximab [reference compound] | – | – | – | – | >16 | 75.27
